Assay results taken from PMC5596636 (ACS chemical neuroscience, 2016).
“Also recorded” adds a separate entry of the source.

What was measured:
[1] = molecular target: mMC5R (Mus musculus, UniProt P41149); test: cAMP-based β-galactosidase reporter agonist assay in HEK293 cells, mMC5R; conditions: for mMC5R fold difference: potency loss
[2] = molecular target: T1, mMC1R (Mus musculus, UniProt Q01727); conditions: B16 murine melanoma cells; relative to α-MSH; cited from earlier work
[3] = molecular target: T1, mMC1R; conditions: B16 murine melanoma cells; relative to α-MSH; cited from earlier work; remark: listed apart in the source
[4] = molecular target: mMC4R (Mus musculus, UniProt P56450); test: cAMP-based β-galactosidase reporter agonist assay in HEK293 cells, mMC4R; conditions: for mMC4R fold difference: potency loss; for selectivity for the mMC4R over the mMC1R: from agonist EC50 values
Sequence of mMC4R (P56450 whole entry): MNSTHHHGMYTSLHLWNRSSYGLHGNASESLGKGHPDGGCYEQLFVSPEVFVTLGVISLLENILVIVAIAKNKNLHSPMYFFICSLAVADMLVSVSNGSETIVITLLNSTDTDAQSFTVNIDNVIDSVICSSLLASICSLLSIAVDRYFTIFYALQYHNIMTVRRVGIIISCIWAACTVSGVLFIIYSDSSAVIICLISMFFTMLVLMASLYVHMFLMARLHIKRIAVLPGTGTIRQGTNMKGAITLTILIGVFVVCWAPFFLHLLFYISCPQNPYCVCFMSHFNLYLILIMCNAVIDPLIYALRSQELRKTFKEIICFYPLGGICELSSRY

[5] = molecular target: mMC3R (Mus musculus, UniProt P33033); test: cAMP-based β-galactosidase reporter agonist assay in HEK293 cells, mMC3R; conditions: for selectivity for the mMC3R over the mMC1R: from agonist EC50 values; for mMC3R fold difference: EC50 of substituted peptide divided by EC50 of NDP-MSH, potency loss
Sequence of mMC3R (P33033 whole entry): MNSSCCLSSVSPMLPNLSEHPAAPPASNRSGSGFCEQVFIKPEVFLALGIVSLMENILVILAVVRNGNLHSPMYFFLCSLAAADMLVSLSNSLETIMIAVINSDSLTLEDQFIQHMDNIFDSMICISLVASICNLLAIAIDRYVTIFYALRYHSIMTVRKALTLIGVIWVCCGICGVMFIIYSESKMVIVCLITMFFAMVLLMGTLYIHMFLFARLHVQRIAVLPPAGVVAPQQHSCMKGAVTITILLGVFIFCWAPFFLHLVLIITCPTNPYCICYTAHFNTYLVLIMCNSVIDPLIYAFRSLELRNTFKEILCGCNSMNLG

[6] = test system: rMC3R; conditions: HEK293 cells expressing the rMC3R; relative to α-MSH; cited from earlier work
[7] = molecular target: T1, mMC1R; test: cAMP-based β-galactosidase reporter agonist assay in HEK293 cells, mMC1R; conditions: for mMC1R fold difference: potency loss
[8] = test system: hMC1R; conditions: cited from earlier work
[9] = test system: hMC4R; conditions: cited from earlier work
[10] = test system: hMC3R; conditions: COS cell-line expressing human melanocortin receptors; cited from earlier work
[11] = test system: hMC1R; conditions: COS cell-line expressing human melanocortin receptors; cited from earlier work
[12] = test system: hMC4R; conditions: cited from earlier work; remark: listed apart in the source
[13] = EC50 of substituted peptide divided by EC50 of α-MSH
[14] = EC50 of substituted peptide divided by EC50 of NDP-MSH

Sequence of mMC5R (P41149 whole entry): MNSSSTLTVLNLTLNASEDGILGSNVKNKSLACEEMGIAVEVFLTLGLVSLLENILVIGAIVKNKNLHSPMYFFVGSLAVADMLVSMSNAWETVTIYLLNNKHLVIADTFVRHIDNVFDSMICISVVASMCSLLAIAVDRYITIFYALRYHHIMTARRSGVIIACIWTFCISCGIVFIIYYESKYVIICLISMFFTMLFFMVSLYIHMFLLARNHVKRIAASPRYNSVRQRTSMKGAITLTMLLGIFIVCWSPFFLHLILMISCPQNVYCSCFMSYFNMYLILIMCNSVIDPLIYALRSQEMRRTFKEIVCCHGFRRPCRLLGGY
T1 sequence (Q01727 whole entry): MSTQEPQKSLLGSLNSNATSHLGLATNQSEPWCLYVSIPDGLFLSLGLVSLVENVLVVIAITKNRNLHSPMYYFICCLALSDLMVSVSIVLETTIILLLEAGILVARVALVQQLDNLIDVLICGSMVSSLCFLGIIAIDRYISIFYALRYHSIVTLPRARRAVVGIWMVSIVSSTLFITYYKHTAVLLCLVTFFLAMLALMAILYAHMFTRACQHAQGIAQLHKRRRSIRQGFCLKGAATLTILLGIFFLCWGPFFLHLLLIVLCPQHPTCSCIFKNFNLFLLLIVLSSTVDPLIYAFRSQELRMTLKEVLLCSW

Row | Structure (SMILES) | mMC5R fold difference [1, 13] | fold decreased binding affinity at the mMC1R [2] | fold decreased tyrosinase potency at the mMC1R [3] | mMC4R fold difference [4, 13] | EC50 [5] [nM] | fold decreased binding affinity at the rMC3R [6] | mMC1R fold difference [7, 13] [fold] | mMC5R fold difference [1, 14] | mMC4R fold difference [4, 14] | mMC1R fold difference [7, 14] | further results
1 | CSCC[C@H](NC(=O)[C@H](C)NC(=O)[C@H](Cc1ccc(O)cc1)NC(=O)[C@H](CO)NC(C)=O)C(=O)N[C@@H](CCC(=O)O)C(=O)N[C@@H](Cc1c[nH]cn1)C(=O)N[C@@H](Cc1ccccc1)C(=O)N[C@@H](CCCNC(=N)N)C(=O)N[C@@H](Cc1c[nH]c2ccccc12)C(=O)NCC(=O)N[C@@H](CCCCN)C(=O)N1CCC[C@H]1C(=O)N[C@H](C(N)=O)C(C)C [[Ala^3]α-MSH] | within experimental error | equipotent | equipotent | within experimental error | 12.1 ± 6.35 | equipotent | 26 | – | – | – | –
2 | CSCC[C@H](NC(=O)[C@H](CO)NC(=O)[C@H](Cc1ccc(O)cc1)NC(=O)[C@H](CO)NC(C)=O)C(=O)N[C@@H](CCC(=O)O)C(=O)N[C@@H](Cc1c[nH]cn1)C(=O)N[C@@H](C)C(=O)N[C@@H](CCCNC(=N)N)C(=O)N[C@@H](Cc1c[nH]c2ccccc12)C(=O)NCC(=O)N[C@@H](CCCCN)C(=O)N1CCC[C@H]1C(=O)N[C@H](C(N)=O)C(C)C [[Ala^7]α-MSH] | 210 fold | 500 fold | 260 fold | 190 fold | 1660 ± 825 | 91 fold | 200 | – | – | – | –
3 | CSCC[C@H](NC(=O)[C@H](CO)NC(=O)[C@H](Cc1ccc(O)cc1)NC(=O)[C@H](CO)NC(C)=O)C(=O)N[C@@H](C)C(=O)N[C@@H](Cc1c[nH]cn1)C(=O)N[C@@H](Cc1ccccc1)C(=O)N[C@@H](CCCNC(=N)N)C(=O)N[C@@H](Cc1c[nH]c2ccccc12)C(=O)NCC(=O)N[C@@H](CCCCN)C(=O)N1CCC[C@H]1C(=O)N[C@H](C(N)=O)C(C)C [[Ala^5]α-MSH] | unaltered | equipotent | equipotent | 15 fold | 220 ± 55 | equipotent | 1560 | – | – | – | selectivity for the mMC5R over the mMC1R ([1]; from agonist EC50 values): 740 fold; selectivity for the mMC4R over the mMC1R [4]: 130 fold; selectivity for the mMC3R over the mMC1R [5]: 220 fold; EC50 ([7]; mMC1R EC50, bound, Table 2, EC50 higher than 20 μM): > 20000 nM
4 | CCCC[C@H](NC(=O)[C@H](CO)NC(=O)[C@H](Cc1ccc(O)cc1)NC(=O)[C@H](CO)NC(C)=O)C(=O)N[C@@H](CCC(=O)O)C(=O)N[C@@H](Cc1c[nH]cn1)C(=O)N[C@H](Cc1ccccc1)C(=O)N[C@@H](CCCNC(=N)N)C(=O)N[C@@H](C)C(=O)NCC(=O)N[C@@H](CCCCN)C(=O)N1CCC[C@H]1C(=O)N[C@H](C(N)=O)C(C)C [[Ala^9]NDP-MSH, Ac-Ser-Tyr-Ser-Nle-Glu-His-DPhe-Arg-Ala-Gly-Lys-Pro-Val-NH2] | – | – | – | – | 295 ± 92 | – | – | 220 fold | 2120 fold | 180 fold | agonist efficacy at the hMC1R [8]: full agonist; fold less potent than NDP-MSH at the hMC1R [8]: 3 fold; mMC3R fold difference [5]: 1230 fold; activation of the hMC4R ([9]; at concentrations up to 100 μM): not to activate
5 | CSCC[C@H](NC(=O)[C@H](CO)NC(=O)[C@H](Cc1ccc(O)cc1)NC(=O)[C@H](CO)NC(C)=O)C(=O)N[C@@H](CCC(=O)O)C(=O)N[C@@H](Cc1c[nH]cn1)C(=O)N[C@@H](Cc1ccccc1)C(=O)N[C@@H](C)C(=O)N[C@@H](Cc1c[nH]c2ccccc12)C(=O)NCC(=O)N[C@@H](CCCCN)C(=O)N1CCC[C@H]1C(=O)N[C@H](C(N)=O)C(C)C [[Ala^8]α-MSH] | 5 fold | 2080 fold | 100 fold | 470 fold | 670 ± 215 | 200 fold | 200 | – | – | – | selectivity for the mMC5R over the mMC4R ([1]; from agonist EC50 values): 120 fold
6 | CSCC[C@H](NC(=O)[C@H](CO)NC(=O)[C@H](Cc1ccc(O)cc1)NC(=O)[C@H](C)NC(C)=O)C(=O)N[C@@H](CCC(=O)O)C(=O)N[C@@H](Cc1c[nH]cn1)C(=O)N[C@@H](Cc1ccccc1)C(=O)N[C@@H](CCCNC(=N)N)C(=O)N[C@@H](Cc1c[nH]c2ccccc12)C(=O)NCC(=O)N[C@@H](CCCCN)C(=O)N1CCC[C@H]1C(=O)N[C@H](C(N)=O)C(C)C [[Ala^1]α-MSH] | no differences | did not affect | did not affect | no differences | 17.4 ± 10.4 | did not affect | 5 | – | – | – | –
7 | CCCC[C@H](NC(=O)[C@H](CO)NC(=O)[C@H](Cc1ccc(O)cc1)NC(=O)[C@H](CO)NC(C)=O)C(=O)N[C@@H](CCC(=O)O)C(=O)N[C@@H](C)C(=O)N[C@H](Cc1ccccc1)C(=O)N[C@@H](CCCNC(=N)N)C(=O)N[C@@H](Cc1c[nH]c2ccccc12)C(=O)NCC(=O)N[C@@H](CCCCN)C(=O)N1CCC[C@H]1C(=O)N[C@H](C(N)=O)C(C)C [[Ala^6]NDP-MSH, Ac-Ser-Tyr-Ser-Nle-Glu-Ala-DPhe-Arg-Trp-Gly-Lys-Pro-Val-NH2] | – | – | – | – | 0.55 ± 0.12 | – | – | did not alter agonist potency | did not alter agonist potency | did not alter agonist potency | fold decreased binding affinity at the hMC3R [10]: 6 fold; mMC3R fold difference [5]: did not alter agonist potency; also recorded: equipotency; efficacy relative to NDP-MSH at the hMC4R [9]: 40%; fold agonist potency loss at the hMC4R relative to NDP-MSH [9]: equipotent; fold decreased binding affinity at the hMC1R [11]: 8 fold; fold decreased agonist potency at the hMC4R relative to NDP-MSH [12]: 4 fold
8 | CCCC[C@H](NC(=O)[C@H](CO)NC(=O)[C@H](Cc1ccc(O)cc1)NC(=O)[C@H](CO)NC(C)=O)C(=O)N[C@@H](CCC(=O)O)C(=O)N[C@@H](Cc1c[nH]cn1)C(=O)N[C@H](Cc1ccccc1)C(=O)N[C@@H](C)C(=O)N[C@@H](Cc1c[nH]c2ccccc12)C(=O)NCC(=O)N[C@@H](CCCCN)C(=O)N1CCC[C@H]1C(=O)N[C@H](C(N)=O)C(C)C [[Ala^8]NDP-MSH, Ac-Ser-Tyr-Ser-Nle-Glu-His-DPhe-Ala-Trp-Gly-Lys-Pro-Val-NH2] | – | – | – | – | 2.07 ± 0.42 | – | – | did not affect the agonist potency | 29 fold | 6 fold | fold agonist potency loss at the hMC4R relative to NDP-MSH [9]: 32 fold
9 | CSCC[C@H](NC(=O)[C@H](CO)NC(=O)[C@H](Cc1ccc(O)cc1)NC(=O)[C@H](CO)NC(C)=O)C(=O)N[C@@H](CCC(=O)O)C(=O)N[C@@H](C)C(=O)N[C@@H](Cc1ccccc1)C(=O)N[C@@H](CCCNC(=N)N)C(=O)N[C@@H](Cc1c[nH]c2ccccc12)C(=O)NCC(=O)N[C@@H](CCCCN)C(=O)N1CCC[C@H]1C(=O)N[C@H](C(N)=O)C(C)C [[Ala^6]α-MSH] | 45 fold | 83 fold | 6 fold | 110 fold | 4270 ± 1960 | 6 fold | 35 | – | – | – | –
10 | CC(=O)N[C@@H](CO)C(=O)N[C@@H](Cc1ccc(O)cc1)C(=O)N[C@@H](CO)C(=O)N[C@@H](C)C(=O)N[C@@H](CCC(=O)O)C(=O)N[C@@H](Cc1c[nH]cn1)C(=O)N[C@@H](Cc1ccccc1)C(=O)N[C@@H](CCCNC(=N)N)C(=O)N[C@@H](Cc1c[nH]c2ccccc12)C(=O)NCC(=O)N[C@@H](CCCCN)C(=O)N1CCC[C@H]1C(=O)N[C@H](C(N)=O)C(C)C [[Ala^4]α-MSH] | did not alter potency | 140 fold | 59 fold | 5 fold | 17.4 ± 6.12 | 14 fold | 400 | – | – | – | selectivity for the mMC5R over the mMC1R ([1]; from agonist EC50 values): 210 fold; selectivity for the mMC4R over the mMC1R [4]: 100 fold; selectivity for the mMC3R over the mMC1R [5]: 710 fold
11 | CCCC[C@H](NC(=O)[C@H](CO)NC(=O)[C@H](Cc1ccc(O)cc1)NC(=O)[C@H](CO)NC(C)=O)C(=O)N[C@@H](C)C(=O)N[C@@H](Cc1c[nH]cn1)C(=O)N[C@H](Cc1ccccc1)C(=O)N[C@@H](CCCNC(=N)N)C(=O)N[C@@H](Cc1c[nH]c2ccccc12)C(=O)NCC(=O)N[C@@H](CCCCN)C(=O)N1CCC[C@H]1C(=O)N[C@H](C(N)=O)C(C)C [[Ala^5]NDP-MSH, Ac-Ser-Tyr-Ser-Nle-Ala-His-DPhe-Arg-Trp-Gly-Lys-Pro-Val-NH2] | – | – | – | – | 1.18 ± 0.4 | – | – | no change | 4 fold | no change | mMC3R fold difference [5]: 5 fold; fold decreased agonist potency at the hMC4R relative to NDP-MSH [12]: 4 fold
